# Patent US20070009455A1 (priority 2003, published 2007)
# Columns and labels:
# Human skin melanocytes = test: Whitening activity test: melanin production in skin melanocytes; type: cell-based; details: for Melanin production inhibitory activity (%): concentration of each test sample: 0.02%
# Description: The whitening activity test based on […] of skin melanocytes was performed as the following method: • 1. Human skin melanocytes in MGM (Melanocyte Growth Media, Clonetics) media were incubated at a 5% CO2 incubator at 37° C. • 2. A predetermined number of cells (2×10^6) were cultured in75T culture flasks. When cell confluence was identified, test samples of a predetermined concentration were loaded in the cell cultures and incubated for 2-3 days. • 3. The cultures were removed, washed with phosphate buffered saline (PBS), and treated with trypsin solution, to harvest cells. • 4. The harvested cells were centrifuged to obtain cell pellets.
# The colors of the cell pellets were observed. The cell pellets were dissolved in 1N NaOH and the absorbance was measured at 475 nm. • 5. The concentration of melanin was calculated by using absorbance values obtained from melanin standard and then converted to the concentration of melanin/the total protein concentration of melanocytes. […]=[(A−B)/A]×100
# A: concentration of melain/concentration of protein in control
# (control: melanocytes normally grown in a culture medium containing no test samples)
# B: concentration of melain/concentration of protein in each test sample
# To evaluate whitening activity, inhibitory activity of the compositions of Examples 7 and Comparative Examples 6-8 against melanin production in melanocytes of healthy persons were measured and the results are summarized in Table 13 below.
# tyrosinase = test: Tyrosinase inhibitory activity test; type: biochemical
# Description: Tyrosine used as a substrate in main processes of melanin biosynthesis, mushroom tyrosinase, or tyrosinase fragments separated from melanocytes was added to test samples and incubated for a predetermined time. The absorbance of dopachrome that was a reaction product was measured at an absorption wavelength to evaluate the whitening effects of the test samples. Tyrosinase inhibitory activity (%)=100−((ODexp−ODcon)/ODstd×100)
# ODexp: Absorbance of test sample containing tyrosinase
# ODcon: Absorbance of test sample containing no tyrosinase
# ODstd: Absorbance of standard sample containing tyrosinase
# [1] = Free radical scavenging activity test (DPPH)
# Description: When methanol solutions of test samples were converted to clear solutions due to scavenging of relatively stable deep blue-colored DPPH(1,1-diphenyl-2-hydrazyl) radicals, the degree of reduction of the absorbance of the methanol solutions was measured at 516 nm. Free radical scavenging activity (%)=100−( (ODexp−ODcon)/ODstd×100)
# ODexp: Absorbance of test sample containing DPPH
# ODcon: Absorbance of test sample containing no DPPH
# ODstd: Absorbance of standard sample containing DPPH
IC50: 50% tyrosinase activity inhibition concentration (tyrosinase),Tyrosinase inhibitory activity (in words) (tyrosinase),Compound,Inhibitory activity of melanin production (in words) (Human skin melanocytes; 0.02%),Melanin production inhibitory activity (%) (Human skin melanocytes),Free radical scavenging (in words) [1]
2 µg/mL,excellent tyrosinase inhibitory activity,Oc1ccc(/C=C/c2cc(O)cc(O)c2)cc1 [Resveratrol],excellent inhibitory activity of melanin production,53.17%,–
–,–,OC[C@H]1O[C@@H](Oc2ccc(O)cc2)[C@H](O)[C@@H](O)[C@@H]1O [Albutin],–,2.00%,–
–,–,O=C1O[C@H]([C@@H](O)CO)C(O)=C1O [Vitamin C],–,19.72%,effective free radical scavengers
–,excellent tyrosinase inhibitory activity,O=c1cc(CO)occ1O [Cojic acid],–,22.62%,–
